# What was measured:
# [1] = molecular target: T1, mouse SGLT homolog (mSGLTh) (Mus musculus, UniProt Q8VDT1); assay: α-methyl glucose uptake in CHO cells expressing mSGLTh; type: cell-based; conditions: for Uptake of α-Methyl Glucose (% based on Control Group): mSGLTh CHO cells, control = NMDG without NaCl
# T1 construct: expressed in transfected cells; host or cells: CHO cells
# T1 sequence (Q8VDT1 8-685 limits assumed): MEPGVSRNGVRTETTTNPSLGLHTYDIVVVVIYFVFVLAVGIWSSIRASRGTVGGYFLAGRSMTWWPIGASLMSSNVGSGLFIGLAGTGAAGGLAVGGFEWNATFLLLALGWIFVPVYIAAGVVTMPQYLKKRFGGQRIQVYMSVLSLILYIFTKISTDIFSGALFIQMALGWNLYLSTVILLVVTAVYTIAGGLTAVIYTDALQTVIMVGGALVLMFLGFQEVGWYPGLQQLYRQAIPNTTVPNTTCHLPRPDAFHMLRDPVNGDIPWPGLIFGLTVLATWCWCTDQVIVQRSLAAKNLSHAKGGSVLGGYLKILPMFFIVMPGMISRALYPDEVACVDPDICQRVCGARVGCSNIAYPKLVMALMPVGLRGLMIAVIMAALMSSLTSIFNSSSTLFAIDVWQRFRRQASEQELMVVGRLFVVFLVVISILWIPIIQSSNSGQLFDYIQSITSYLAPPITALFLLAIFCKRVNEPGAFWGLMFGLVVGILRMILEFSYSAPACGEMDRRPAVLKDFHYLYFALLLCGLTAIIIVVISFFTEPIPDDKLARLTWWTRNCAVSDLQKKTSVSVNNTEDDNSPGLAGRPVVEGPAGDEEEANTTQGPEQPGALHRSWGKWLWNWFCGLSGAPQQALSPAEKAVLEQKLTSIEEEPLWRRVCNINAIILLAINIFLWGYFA
# Method: (§1) In accordance with the procedures described in Example 4 of WO 02/53738, the CHO cell lines expressing the human SGLT homolog (hSGLTh), mouse SGLT homolog (mSGLTh), rat SGLT homolog (rSGLTh), human SGLT1 (hSGLT1) and human SGLT2 (hSGLT2) were prepared, respectively, and used for experiments. The experimental uptake of α-methyl glucose, which is a glucose analog selectively taken up into the cells by SGLT, was carried out according to the method described in Am. J. Physiol., 270: G833-G843, 1996 and J. Clin. Invest., 93: 397-404, 1994. The cells were plated on 100 μl of DMEM containing 10% FBS charged in a 96-well plate in a cell density of 1×10^5 cells/well, followed by culturing overnight at 37° C. The cells were washed 3 times with 150 μl of a buffer solution (125 mM N-Methyl-D-Glucamine, 1.2 mM KH2PO4, 2.5 mM CaCl2, 1.2 mM MgSO4, 4 mM Glutamine, 10 mM HEPES (pH 7.2), 0.1 mg/ml BSA) and cultured for an hour in the same buffer solution to remove the remaining glucose. The buffer solution was removed and replaced with 90 μl of the same buffer solution or the buffer solution containing NaCl or NaCl+Phlorizin (Sigma) in place of N-Methyl-D-Glucamine (NMDG). After one-hour incubation with 10 μl of 1 mM α-methyl glucose (containing 0.02 μCi of [^14C]-α-Methyl Glucose (Amersham Pharmacia Biotech)) per well, the cells were washed 3 times with 200 μl of chilled PBS buffer. The radioactivity of ^14C taken up into the cells was counted with 100 μl of a liquid scintillator added per well.
# [2] = tested on: rat SGLT homolog (rSGLTh); assay: α-methyl glucose uptake in CHO cells expressing rSGLTh; type: cell-based; conditions: control = NMDG without NaCl
# Method: as §1, with “After one-hour incubation with 10 μl of 1 mM α-methyl glucose (containing 0.02 μCi of [^14C]-α-Methyl Glucose (Amersham Pharmacia Biotech)) per well, the cells were washed 3 times with 200 μl of chilled PBS buffer.” left out
# [3] = molecular target: T2, human SGLT homolog (hSGLTh) (Homo sapiens, UniProt Q2M3M2, I269M); assay: α-methyl glucose uptake in CHO cells expressing hSGLTh; type: cell-based; conditions: for Uptake of α-Methyl Glucose (% based on Control Group): hSGLTh CHO cells, control = NMDG without NaCl
# T2 construct: expressed in transfected cells; host or cells: CHO cells
# T2 sequence (Q2M3M2 8-681 I269M limits assumed): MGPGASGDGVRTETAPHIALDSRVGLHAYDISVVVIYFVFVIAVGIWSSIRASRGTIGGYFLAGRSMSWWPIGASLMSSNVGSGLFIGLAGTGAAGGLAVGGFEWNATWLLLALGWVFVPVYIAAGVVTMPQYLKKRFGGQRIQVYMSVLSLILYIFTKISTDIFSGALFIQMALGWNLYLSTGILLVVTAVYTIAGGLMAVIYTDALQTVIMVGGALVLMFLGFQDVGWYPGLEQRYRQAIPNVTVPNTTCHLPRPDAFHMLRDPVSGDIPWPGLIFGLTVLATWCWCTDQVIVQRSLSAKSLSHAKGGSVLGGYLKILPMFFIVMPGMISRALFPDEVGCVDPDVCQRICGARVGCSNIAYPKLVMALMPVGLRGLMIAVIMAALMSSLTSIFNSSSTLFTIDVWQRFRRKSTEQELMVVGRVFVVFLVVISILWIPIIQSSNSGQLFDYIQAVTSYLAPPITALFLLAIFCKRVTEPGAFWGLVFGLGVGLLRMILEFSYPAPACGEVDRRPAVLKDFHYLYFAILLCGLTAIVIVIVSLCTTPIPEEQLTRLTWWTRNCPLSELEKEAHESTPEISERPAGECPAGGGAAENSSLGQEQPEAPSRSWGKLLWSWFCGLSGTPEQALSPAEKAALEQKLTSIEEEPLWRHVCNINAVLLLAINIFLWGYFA
# Method: as §1
# hamster small intestine = assay: glucose uptake in small intestine by the organ culture system; conditions: hamster jejunal slices, NaCl + 30 μM Phlorizin, 10 minutes at 37° C.
# Method: The glucose uptake level was determined by the intestinal organ culture system in accordance with the procedures described in Peptides, 19: 1249-1253, 1998 and J. Agric. Food Chem., 48: 5618-5623, 2000. The carotid was cut in mice, rats, guinea pigs and hamsters under ether anesthesia to put them to death. The jejunal region was excised, mesenteric fats were removed, the tract was dissected and the contents were washed and cut in 1 cm length. The jejunal slices were washed 3 times with a buffer solution (125 mM N-Methyl-D-Glucamine (NMDG), 1.2 mM KH2PO4, 2.5 mM CaCl2, 1.2 mM MgSO4, 4 mM Glutamine, 10 mM HEPES (pH 7.2), 0.1 mg/ml BSA) and then transferred to a 48-well plate by one slice/well. […]. The jejunal slices were transferred to a mini-vial for liquid scintillation counting. After 500 μl of tissue solubilizer Solvable (Perkin Elmer LifeSciences) was added thereto, the mixture was treated at 50° C. for 2 hours to solubilize the tissues. After 5 ml of liquid scintillator Ultima Gold-XR (Perkin Elmer LifeSciences) was added, ^14C and ^3H taken up into the jejunal slices were counted. […]
smiles,measurement,setting,value
O=C(CCc1ccc(O)cc1)c1c(O)cc(O)cc1O[C@@H]1O[C@H](CO)[C@@H](O)[C@H](O)[C@H]1O [phlorizin],Uptake of α-Methyl Glucose (% based on Control Group),[1]; NaCl + 15 μM phlorizin,521 ± 35%
same,Uptake of α-Methyl Glucose (% based on Control Group),[1]; NaCl + 500 μM,78 ± 8%
same,resistance to phlorizin,[1]; mouse SGLT homolog compared with SGLT1 and SGLT2,more potent than in SGLT1 and SGLT2
same,Uptake of α-Methyl Glucose (% based on Control Group),[2]; NaCl + 15 μM phlorizin,643 ± 76%
same,Uptake of α-Methyl Glucose (% based on Control Group),[2]; NaCl + 500 μM,118 ± 6%
same,Uptake of α-Methyl Glucose (% based on Control Group),[3]; NaCl + 3 μM phlorizin,570 ± 142%
same,Uptake of α-Methyl Glucose (% based on Control Group),[3]; NaCl + 100 μM phlorizin,124 ± 19%
same,resistance to phlorizin,[3]; human SGLT homolog compared with SGLT1 and SGLT2,more potent than in SGLT1 and SGLT2
same,SGLT activity (α-methyl glucose uptake) resistance to phloridzin,hamster small intestine,strongly resistant

# From patent publication US20060063711A1, “Use of sglt homolog” (priority 2002, published 2006)
